Test results taken from US7846971B2, “N-halogenated amino acids, N,N-dihalogenated amino acids and derivatives; compositions and methods of using them” (Novabay Pharmaceuticals, Inc., priority 2005, dated 2010).
Converted amounts (≈) assume the structure as drawn. Like-named read-outs stand apart in the source and are kept apart here.

Key:
[1] = tested on: Escherichia coli (ATCC 11229); assay: Bactericidal activity (colony count, MBC); format: cell-based
Description: To determine the bactericidal activity, we used Escherichia coli (ATCC 11229). The bacterial culture was diluted in sterile saline to prepare inocula. Various test articles were transferred to individual tubes already containing 1.0×10^5 to 2.0×10^5 Colony Forming Units (CFU)/mL bacteria and mixed by gentle vortexing and then incubated at 37° C. for 1 or 24 hours. In an attempt to mimic as far as possible the conditions, which could be produced in vivo if the test articles were used as antiseptics, bacterial plating in a Petri dish was performed immediately after the designated exposure time without the addition of a neutralizer, and independently with addition of neutralizer (as control). Thus, 0.1 mL was removed after 1 or 24 hours exposure times and plated. Plates were incubated at 37° C., and the numbers of bacteria were counted by direct colony count to numerate the surviving bacteria as CFU/mL. Positive growth controls were made with sterile 0.9% saline. All test articles were tested three times.

[2] = tested on: Primary Human Skin Fibroblasts; assay: XTT cytotoxicity assay on primary human skin fibroblasts; format: cell-based
Description: Cytotoxicity was assessed by a colorimetric assay system, initially described by Scudiero et al., using 3′-(phenylamino-carbonyl)-3,4-tetrazolium-bis (4-methoxy-6-nitro) benzene sulfonic acid hydrate (XTT), ProCheck™ cell viability assay (Evaluation of a soluble tetrazolium/formazan assay for cell growth and drug sensitivity in culture using human and other tumor cell lines described by Scudiero D A, Shoemaker R A H, Paul K D, Monks A, Tierney S, Nofziger T H, Currens M J, Seniff D, Boyd M R. Cancer Res. 1988 Septmeber 1;48(17):4827-33). […] Three cell types were used: mouse lung epithelial cells (L929), primary human skin fibroblast and primary human keratinocyte cells cultured in Dulbecco Modified Eagle's Medium and Keratinocyte defined medium with corresponding growth factors plus antibiotics. Cells were trypsinized and counted under the microscope and seeded at 1000-to-2000 cells per well of a flat-bottom 96-well plate. Cells were allowed to grow over-night at 37° C. Next day, tissue culture media was removed and cells were rinsed with fresh media 1× and then left in 50 μL of tissue culture media. Test articles were prepared as 2-fold dilutions and 200 μL was added into each set of 4-wells (total volume per well=250 μL). Cells were exposed to test articles for 60 min at room temperature. Immediately after the exposed time, test article from each well was removed and cells were fed with 250 μL of fresh media. Plates were incubated at 37° C. for 18-20 hours. The following day media was removed again and replaced with 100 μL/well of fresh media containing 10/100 μL XTT-reagent. Cells were incubated under growth conditions (5% CO2 at 37° C. humidified incubator), protected from light, until color development was achieved. Absorbance was read at 450 nm with reference wavelength at 750 nm using Molecular Device ThermoMax Plate reader, blanking the plate on the medium-only assay blank wells. Untreated cells receiving XTT reagents-only served as positive cell proliferation control.

[3] = Volatility test, tightly vs loosely capped bottles; format: physicochemical; details: 1.47 mM in 0.9% saline
Description: NNDCT is not volatile. A solution of 1.47 mM in 0.9% saline at pH 3.5 was filled in two glass bottles. One bottle was capped tightly and another was capped loosely.

[4] = format: physicochemical
Excerpt: NNDCT and NCT are spectrophotometrically distinguishable. NCT has a maximum absorbance at 252 nm. […] The solution was sealed in ampoules.

[5] = UV-vis spectrum and concentration of NNDCT solutions at varying pH; format: physicochemical; details: 1.49 mM, pH 3.0 to 5.0
Description: The spectra and the concentrations of the solutions were measured on the UV-vis spectrometer.
Add 8.8 g NaCl, 2 ml of 1.0 M HCl, and 0.278 g of taurine into a 1000-ml volumetric flask, followed by adding about 800 ml of deionized water into the flask. Shake the flask to dissolve NaCl and taurine powders. Then add […] of 0.15M of the NaOCl solution into the flask. Fill the flask up to the mark with deionized water. Stir the solution with a magnetic stirring bar for 5 minutes. The concentration and the pH of the resulting solution were measured on a UV-vis spectrometer and a freshly calibrated Beckman pH meter. This solution has a concentration of 1.49 mM and a pH value of 3.85. […] The final pH of this solution is 3.0. […] The final pH of this solution is 4.85.

[6] = XTT cytotoxicity assay on L929 cells; format: cell-based; details: mouse
Description: Cytotoxicity was assessed by a colorimetric assay system, initially described by Scudiero et al., using 3′-(phenylamino-carbonyl)-3,4-tetrazolium-bis (4-methoxy-6-nitro) benzene sulfonic acid hydrate (XTT), ProCheck™ cell viability assay (Evaluation of a soluble tetrazolium/formazan assay for cell growth and drug sensitivity in culture using human and other tumor cell lines described by Scudiero D A, Shoemaker R A H, Paul K D, Monks A, Tierney S, Nofziger T H, Currens M J, Seniff D, Boyd M R. Cancer Res. 1988 Septmeber 1;48(17):4827-33). […] Three cell types were used: mouse lung epithelial cells (L929), primary human skin fibroblast and primary human keratinocyte cells cultured in Dulbecco Modified Eagle's Medium and Keratinocyte defined medium with corresponding growth factors plus antibiotics. Cells were trypsinized and counted under the microscope and seeded at 1000-to-2000 cells per well of a flat-bottom 96-well plate. Cells were allowed to grow over-night at 37° C. Next day, tissue culture media was removed and cells were rinsed with fresh media 1× and then left in 50 μL of tissue culture media. […] Absorbance was read at 450 nm with reference wavelength at 750 nm using Molecular Device ThermoMax Plate reader, blanking the plate on the medium-only assay blank wells. […]

[7] = pH=1.88, after 100 hours; cited from earlier work
[8] = format: physicochemical; remark: listed apart in the source
Excerpt: N,N-dichlorotaurine can be identified and quantitatively determined by UV spectroscopy.

[9] = tested on: human adenovirus type 5 (Ad5, McEwen strain); assay: Antiviral plaque assay on A549 cell monolayer; format: cell-based; details: virus mixed with sample 1 hr at 37C; for Effect on monolayer (plaques counted), 10^−0 undiluted: dilution 10^−0; for Effect on monolayer (plaques counted), 10^−1: dilution 10^−1; for Effect on monolayer (plaques counted), 10^−2: dilution 10^−2; for Effect on monolayer (plaques counted), 10^−3: dilution 10^−3; for Effect on monolayer (plaques counted), 10^−4: dilution 10^−4; for Effect on monolayer (plaques counted), 10^−5: dilution 10^−5; for Effect on monolayer (plaques counted), 10^−6: dilution 10^−6
Description: An equal volume of human adenovirus type 5 (Ad5, McEwen strain) was mixed with each of the three samples listed below. The mixtures were incubated at 37C for 1 hr and then diluted in tissue culture medium (Dulbecco's Modified Eagle Medium [DMEM] containing heat inactivated 2% fetal bovine serum). The mixtures were then diluted in 10-fold serial dilutions using the same diluent mentioned above. 0.1 ml of each diluted mixture was inoculated on to a A549 cell monolayer grown in 12 well plates (cell source, ATTC) and allowed to adsorb for 1 hr. The inoculum was removed and the monolayer rinsed with diluent and agarose/DMEM overlay applied. The plates were incubated at 37° C. in 5% CO2 atmosphere for 6 days. The monolayers were then fixed, stained and the plaques counted.

[10] = Escherichia coli, ATCC11229, Table 2, pH 3.5, read-out: MBC
[11] = Homo sapiens, Skin fibroblast, Table 2, pH 3.5, in vitro cytotoxicity, read-out: IC50

Povidone-Iodine [reference compound]
MBC ([1]; Table 2, pH 4.2): 0.38 µg/mL
IC50 ([2]; Table 2, pH 4.2, in vitro cytotoxicity): 2.5 µg/mL

O=S(=O)(O)CCN(Cl)Cl [NNDCT, N,N-dichlorotaurine]
killing efficiency of NNDCT at pH 3.5 as compared to NCT at pH 9.5 ([1]; 60 min exposure, 37° C.): 1000 fold
killing efficiency of NNDCT at pH 3.5 over NNDCT at pH 5.0 ([1]; 60 min exposure, 37° C.): about 300 fold
MBC ([1]; Escherichia coli, ATCC11229, 1 h, pH 3.5, isotonic solution, 60 min, 37° C., read-out: MBC (Minimum Bactericidal Concentration)): 0.136 µg/mL (≈ 0.701 µM)
MBC ([1]; Escherichia coli, ATCC11229, 1 h, pH 5.0, isotonic solution, 60 min, 37° C., read-out: MBC (Minimum Bactericidal Concentration)): 38 µg/mL (≈ 196 µM)
MBC [1, 10]: 0.29 µg/mL (≈ 1.49 µM)
effectiveness against E. coli compared with HOCl ([1]; pH 3.5): better or as effective
volatility ([3]; pH 3.5): not volatile
difference in concentration between tightly and loosely capped bottle ([3]; pH 3.5, 4 weeks, room temperature): no difference
IC50 [2, 11]: 1440 µg/mL (≈ 7430 µM)
loss of N,N-dichlorotaurine ([4]; solution in a vial stored in a refrigerator, three months): no more than 13%
NNDCT lost ([4]; solution pH 3.5, sealed ampoules, refrigerator (4° C.), 4 weeks, initial 1.47 mM): 5.4%
spectrum and concentration of NNDCT solution over pH range [5]: did not change
viability at 60 min, 7 mM [6]: > 90%
loss of N,N-dichlorotaurine [7]: less than 5%
solubility in water [8]: very soluble

CC(C)(CS(=O)(=O)O)N(Cl)Cl [Sample 1, N,N-dichloro-1,1-dimethylethanesulphonic acid]
Effect on monolayer (plaques counted), 10^−0 undiluted [9]: Early toxic
Effect on monolayer (plaques counted), 10^−1 [9]: 28
Effect on monolayer (plaques counted), 10^−2 [9]: 17
Effect on monolayer (plaques counted), 10^−3 [9]: 3
Effect on monolayer (plaques counted), 10^−4 [9]: 3
Effect on monolayer (plaques counted), 10^−5 [9]: 3
Effect on monolayer (plaques counted), 10^−6 [9]: 9

O=S(=O)(O)CCNCl [NCT, N-chlorotaurine]
factor by which less antimicrobial than NNDCT on an equal concentration basis [1]: 1000 fold
MBC ([1]; Escherichia coli, ATCC11229, 1 h, pH 9.5, read-out: MBC (Minimum Bactericidal Concentration)): 142 µg/mL (≈ 893 µM)

OCl [HOCl, hypochlorous acid, reference compound]
MBC [1, 10]: 0.16 µg/mL (≈ 3.05 µM)
effective antimicrobial concentration range ([1]; pH 3.5, 60 min, 37° C.): ≥ 0.016 mM
effective antimicrobial concentration range ([1]; pH 3.5, 24 hrs, 37° C.): ≥ 0.0016 mM
IC50 [2, 11]: 47 µg/mL (≈ 896 µM)
Effect on monolayer (plaques counted), 10^−0 undiluted [9]: 14
Effect on monolayer (plaques counted), 10^−1 [9]: 9
Effect on monolayer (plaques counted), 10^−2 [9]: 3
Effect on monolayer (plaques counted), 10^−3 [9]: 1
Effect on monolayer (plaques counted), 10^−4 [9]: 4
Effect on monolayer (plaques counted), 10^−5 [9]: 4
Effect on monolayer (plaques counted), 10^−6 [9]: 1
